pEC50: −log10 of the molar value. Read-outs that look alike come from different tables or passages of the source.
Molecular target: T1, human GPBAR1 receptor (Homo sapiens, UniProt Q8TDU6)
T1 construct: expressed in transfected cells
T1 sequence (Q8TDU6 1-330): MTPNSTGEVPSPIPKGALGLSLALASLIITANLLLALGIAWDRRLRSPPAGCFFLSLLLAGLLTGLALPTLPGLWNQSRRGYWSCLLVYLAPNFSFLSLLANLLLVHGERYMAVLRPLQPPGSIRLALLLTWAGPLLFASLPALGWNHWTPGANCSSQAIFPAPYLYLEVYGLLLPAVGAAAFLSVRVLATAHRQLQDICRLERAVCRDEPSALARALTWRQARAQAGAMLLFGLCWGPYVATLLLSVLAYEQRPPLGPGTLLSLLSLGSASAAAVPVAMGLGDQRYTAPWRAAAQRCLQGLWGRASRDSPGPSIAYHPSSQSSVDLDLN
Test: functional cAMP assay in CHO-dhfr(minus) cells expressing human GPBAR1 receptors
Assay type: cell-based
Conditions: 30 min at 30° C.
Procedure, shortened: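 Agonist cAMP read-out: stable GPBAR1 CHO-dhfr− clone, 30 min compound exposure at 30° C following 30 min IBMX (1 mM) preincubation in Krebs Ringer bicarbonate. Time-resolved energy-transfer detection gives EC50; parental CHO cells serve as counter-screen.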

[1] = human EC50, functional cAMP assay

Cc1cc(/C(C[C@H](c2ccc(N3CCC(C(=O)NCCS(=O)(=O)O)CC3)cc2)c2ccccc2C)=N/O)ccn1 [Example 370, (R,E)-2-(1-(4-(3-(hydroxyimino)-3-(2-methylpyridin-4-yl)-1-o-tolylpropyl)phenyl)-piperidine-4-carboxamido)ethanesulfonic acid]
pEC50 [1]: 9.00

Cc1cc(/C(C[C@H](c2ccc(N3CC4(CSC4)C3)cc2)c2ccccc2C)=N/O)ccn1 [Example 371, (3R,E)-3-(4-(2-thia-6-azaspiro[3.3]heptan-6-yl)phenyl)-1-(2-methylpyridin-4-yl)-3-o-tolylpropan-1-one oxime]
pEC50 [1]: 7.62

Cc1cc(/C(C[C@H](c2ccc(C3=CCN(C(=O)OC(C)(C)C)CC3)cc2)c2ccccc2C)=N/O)ccn1 [Example 372, (R)-tert-Butyl 4-(4-(3-(hydroxyimino)-3-(2-methylpyridin-4-yl)-1-o-tolylpropyl)phenyl)-5,6-dihydropyridine-1(2H)-carboxylate]
pEC50 [1]: 6.87

Cc1ccccc1[C@H](C/C(=N\O)c1ccnc(CO)c1)c1ccc(N2CCC(C(=O)O)CC2)cc1 [Example 374, (R,E)-1-(4-(3-(Hydroxyimino)-3-(2-(hydroxymethyl)pyridin-4-yl)-1-o-tolylpropyl)phenyl)-piperidine-4-carboxylic acid]
pEC50 (functional cAMP assay, read-out: human EC50): 7.51

Cc1cc(/C(C[C@H](c2ccc(C3=CCNCC3)cc2)c2ccccc2C)=N/O)ccn1 [Example 375, (R,E)-1-(2-Methylpyridin-4-yl)-3-(4-(1,2,3,6-tetrahydropyridin-4-yl)phenyl)-3-o-tolylpropan-1-one oxime]
pEC50 [1]: 7.12

Cc1cc(/C(C[C@H](c2ccc(C3=CCN(S(C)(=O)=O)CC3)cc2)c2ccccc2C)=N/O)ccn1 [Example 376, (R,E)-1-(2-Methylpyridin-4-yl)-3-(4-(1-(methylsulfonyl)-1,2,3,6-tetrahydropyridin-4-yl)phenyl)-3-o-tolylpropan-1-one oxime]
pEC50 [1]: 7.85

Cc1cc(/C(C[C@H](c2ccc(C3=CC(=O)NCC3)cc2)c2ccccc2C)=N/O)ccn1 [Example 377, (R,E)-4-(4-(3-(Hydroxyimino)-3-(2-methylpyridin-4-yl)-1-o-tolylpropyl)phenyl)-5,6-dihydropyridin-2(1H)-one]
pEC50 [1]: 7.92

Cc1cc(/C(C[C@H](c2ccc(C3CCNCC3)cc2)c2ccccc2C)=N/O)ccn1 [Example 378, (R,E)-1-(2-Methylpyridin-4-yl)-3-(4-(piperidin-4-yl)phenyl)-3-o-tolylpropan-1-one oxime]
pEC50 [1]: 6.84

Cc1cc(/C(C[C@H](c2ccc(C3CCN(S(C)(=O)=O)CC3)cc2)c2ccccc2C)=N/O)ccn1 [Example 379, (R,E)-1-(2-methylpyridin-4-yl)-3-(4-(1-(methylsulfonyl)piperidin-4-yl)phenyl)-3-o-tolylpropan-1-one oxime]
pEC50 [1]: 7.85

Cc1cc(/C(C[C@@H](c2ccc(N3CCOCC3)cc2)c2ccccc2C)=N/O)ccn1 [Example 381, (S,E)-1-(2-Methylpyridin-4-yl)-3-(4-morpholinophenyl)-3-o-tolylpropan-1-one oxime]
pEC50 [1]: 7.30

Cc1cc(/C(C[C@H](c2ccc(CC(=O)O)cc2)c2ccc(Cl)cc2C)=N/O)ccn1 [Example 382, {4-[(R)-1-(4-Chloro-2-methyl-phenyl)-3-[(E)-hydroxyimino]-3-(2-methyl-pyridin-4-yl)-propyl]-phenyl}-acetic acid]
pEC50 [1]: 7.39

Cc1cc(Cl)ccc1[C@H](C/C(=N\O)c1ccnc(CO)c1)c1ccc(Br)cc1 [Example 383, (R,E)-3-(4-Bromophenyl)-3-(4-chloro-2-methylphenyl)-1-(2-(hydroxymethyl)pyridin-4-yl)propan-1-one oxime]
pEC50 [1]: 6.49

Cc1cc(Cl)ccc1[C@H](C/C(=N\O)c1cc[n+]([O-])c(C)c1)c1ccc(Br)cc1 [Example 384, (R,E)-4-(3-(4-Bromophenyl)-3-(4-chloro-2-methylphenyl)-1-(hydroxyimino)propyl)-2-methylpyridine 1-oxide]
pEC50 [1]: 6.77

Cc1cc(/C(=N/O)C(C)[C@H](c2ccc(Br)cc2)c2ccc(Cl)cc2C)ccn1 (stereo partly drawn) [Example 385, (3R,E)-3-(4-bromophenyl)-3-(4-chloro-2-methylphenyl)-2-methyl-1-(2-methylpyridin-4-yl)propan-1-one oxime]
pEC50 [1]: 6.16

Cc1cc(/C(C[C@H](c2ccc(Br)cc2)c2ccc(Cl)cc2C)=N/O)ccn1 [Example 386, (R,E)-3-(4-bromophenyl)-3-(4-chloro-2-methylphenyl)-1-(2-methylpyridin-4-yl)propan-1-one oxime]
pEC50 [1]: 6.77

Cc1cc(/C(C[C@H](c2ccc(C3CCN(C(=O)OC(C)(C)C)CC3)cc2)c2ccc(Cl)cc2C)=N/O)ccn1 [Example 387, (R,E)-tert-Butyl 4-(4-(1-(4-chloro-2-methylphenyl)-3-(hydroxyimino)-3-(2-methylpyridin-4-yl)propyl)phenyl)piperidine-1-carboxylate]
pEC50 [1]: 6.43

Cc1cc(/C(C[C@H](c2ccc(C3CCNCC3)cc2)c2ccc(Cl)cc2C)=N/O)ccn1 [Example 388, (R,E)-3-(4-chloro-2-methylphenyl)-1-(2-methylpyridin-4-yl)-3-(4-(piperidin-4-yl)phenyl)propan-1-one oxime]
pEC50 [1]: 6.76

Cc1cc(/C(C[C@H](c2ccc(C3CCN(S(C)(=O)=O)CC3)cc2)c2ccc(Cl)cc2C)=N/O)ccn1 [Example 389, (R,E)-3-(4-Chloro-2-methylphenyl)-1-(2-methylpyridin-4-yl)-3-(4-(1-(methylsulfonyl)-piperidin-4-yl)phenyl)propan-1-one oxime]
pEC50 [1]: 7.48

Cc1cc(/C(C[C@@H](c2ccccc2)c2ccc(Cl)cc2C)=N/O)ccn1 [Example 390, (S)-3-(4-Chloro-2-methyl-phenyl)-1-(2-methyl-pyridin-4-yl)-3-phenyl-propan-1-one oxime]
pEC50 [1]: 7.28

Cc1cc(/C(CC(c2cccc(S(C)(=O)=O)c2)c2ccccc2C)=N/O)ccn1 (stereo not drawn) [Example 391, (E)-1-(2-methylpyridin-4-yl)-3-(3-(methylsulfonyl)phenyl)-3-o-tolylpropan-1-one oxime]
pEC50 [1]: 6.91

Cc1cc(F)ccc1C(C/C(=N\O)c1ccc(=O)n(C)c1)c1ccc(-c2ccc(NC(=O)CCC(=O)O)cc2)cc1 (stereo not drawn) [Example 392, N-{4′-[1-(4-Fluoro-2-methyl-phenyl)-3-[(E)-hydroxyimino]-3-(1-methyl-6-oxo-1,6-dihydro-pyridin-3-yl)-propyl]-biphenyl-4-yl}-succinamic acid]
pEC50 [1]: 7.27

COC(=O)CC(=O)Nc1ccc(-c2ccc(C(C/C(=N\O)c3ccc(=O)n(C)c3)c3ccc(F)cc3C)cc2)cc1 (stereo not drawn) [Example 399, N-{4′-[1-(4-Fluoro-2-methyl-phenyl)-3-[(E)-hydroxyimino]-3-(1-methyl-6-oxo-1,6-dihydro-pyridin-3-yl)-propyl]-biphenyl-4-yl}-malonamic acid methyl ester]
pEC50 [1]: 6.78

Cc1cc(F)ccc1C(C/C(=N\O)c1ccc(=O)n(C)c1)c1ccc(-c2ccc(NC(=O)CC(=O)O)cc2)cc1 (stereo not drawn) [Example 400, N-{4′-[1-(4-Fluoro-2-methyl-phenyl)-3-[(E)-hydroxyimino]-3-(1-methyl-6-oxo-1,6-dihydro-pyridin-3-yl)-propyl]-biphenyl-4-yl}-malonamic acid]
pEC50 [1]: 7.31

Cc1cc(F)ccc1C(C/C(=N\O)c1ccc(=O)n(C)c1)c1ccc(-c2ccc(S(N)(=O)=O)cc2)cc1 (stereo not drawn) [Example 401, 4′-[1-(4-Fluoro-2-methyl-phenyl)-3-[(E)-hydroxyimino]-3-(1-methyl-6-oxo-1,6-dihydro-pyridin-3-yl)-propyl]-biphenyl-4-sulfonic acid amide]
pEC50 [1]: 8.30

Cn1cc(/C(CC(c2ccc(Br)cc2)c2ccc(F)cc2F)=N/O)ccc1=O (stereo not drawn) [Example 402, 5-{3-(4-Bromo-phenyl)-3-(2,4-difluoro-phenyl)-1-[(E)-hydroxyimino]-propyl}-1-methyl-1H-pyridin-2-one]
pEC50 [1]: 8.22

Cn1cc(/C(CC(c2ccc(-c3ccc(C(=O)O)cc3)cc2)c2ccc(F)cc2F)=N/O)ccc1=O (stereo not drawn) [Example 403, 4′-[1-(2,4-Difluoro-phenyl)-3-[(E)-hydroxyimino]-3-(1-methyl-6-oxo-1,6-dihydro-pyridin-3-yl)-propyl]-biphenyl-4-carboxylic acid]
pEC50 [1]: 6.86

Cc1ccc(C(C/C(=N\O)c2ccc(=O)n(C)c2)c2ccc(Br)cc2)c(F)c1 (stereo not drawn) [Example 408, (E)-5-(3-(4-bromophenyl)-3-(2-fluoro-4-methylphenyl)-1-(hydroxyimino)propyl)-1-methylpyridin-2(1H)-one]
pEC50 [1]: 6.93

Cn1cc(/C(CC(c2ccc(Br)cc2)c2ccc(F)cc2S(C)(=O)=O)=N/O)ccc1=O (stereo not drawn) [Example 409, (E)-5-{3-(4-Bromo-phenyl)-3-(4-fluoro-2-methanesulfonyl-phenyl)-1-(hydroxyimino)-propyl}-1-methyl-1H-pyridin-2-one]
pEC50 [1]: 6.68

Cn1cc(/C(CC(c2ccc(Br)cc2)c2ccc(F)cc2Cl)=N/O)ccc1=O (stereo not drawn) [Example 410, (E)-5-(3-(4-bromophenyl)-3-(2-chloro-4-fluorophenyl)-1-(hydroxyimino)propyl)-1-methylpyridin-2(1H)-one]
pEC50 [1]: 7.96

Cc1ccc(C(C/C(=N\O)c2ccc(=O)n(C)c2)c2ccc(-c3ccc(C(=O)O)cc3)cc2)c(F)c1 (stereo not drawn) [Example 411, (E)-4′-(1-(2-fluoro-4-methylphenyl)-3-(hydroxyimino)-3-(1-methyl-6-oxo-1,6-dihydropyridin-3-yl)propyl)biphenyl-4-carboxylic acid]
pEC50 [1]: 6.00

Source: US8765730B2 (Hoffmann-La Roche Inc, priority 2010, dated 2014)
